Patent US20250144099A1, “INK4 TUMOR SUPPRESSOR PROTEINS MEDIATE RESISTANCE TO CDK4/6 KINASE INHIBITORS” (MEMORIAL SLOAN-KETTERING CANCER CENTER, priority 2021, published 2025)
Entries after “also recorded” stand apart in the source; their conditions may differ.

Legend:
CDK4 = target: T1, CDK4 (Homo sapiens, UniProt P11802); assay: Immunoblotting of CDK4 degradation in cells; type: cell-based
T1 construct: CDK4 and CDK6 were immunoprecipitated from isogenic drug sensitive (MCF7 parental cells with low CDK6); endogenous in cells; host or cells: MCF-7 parental and MCF-7 FAT1 CRISPR knockout (CDK6-high) cells
Method: (§1) Cell lysates were collected in RIPA buffer (Thermo Fisher Scientific) supplemented with protease and phosphatase inhibitors (Pierce). Protein concentration was quantified by using the BCA kit (Fisher Scientific). […] of protein lysates were loaded onto 4-12% SDS-PAGE gels (Invitrogen) for electrophoresis and transferred onto nitrocellular membranes. Blots were blocked with Intercept™ (TBS) Blocking Buffer (LI-COR Bioscience #927-60001) and incubated with primary antibody at 4° C. overnight. Secondary antibodies conjugated with fluorescence (LI-COR Bioscience #926-68071 and #926-32210) were incubated for 1 h at room temperature and blots were scanned by Odyssey Clx Imaging System from LI-COR Bioscience.

phosphorylation of Rb = assay: Immunoblotting of Rb phosphorylation in cells; type: cell-based, human; settings: FAT1 loss / CDK6-high CDK4/6i-resistant MCF7 cells
Method: as §1

CDK6 = CDK6 (Homo sapiens, UniProt Q00534); assay: Immunoblotting of CDK6 degradation in cells; type: cell-based; parameters: MCF7 cells that lost FAT1 expression and with high CDK6 expression; endogenous in cells; host or cells: MCF-7 FAT1 loss cells (also MCF-7 parental)
Method: as §1

[1] = tested on: CDK6-overexpressing xenografts; assay: Efficacy study, cell-derived xenograft; type: in vivo, NSG mice; settings: 25-35 days
Method: (§2) Efficacy study. NOD.Cg-Prkdc Il2rg<tm1Wjl>/SzJ (NSG) mice were obtained from the Jackson Laboratory (Stock #: 005557). Each mouse was injected with MCF7 parental, CDK6-ovexpressing or PTEN loss cells subcutaneously 1 week after the implantation of estradiol pellets (25 mg). […] Tumor volumes were recorded every 3-4 days. Mice were sacrificed if tumors reached 1000 mm^3 or at the end of the experiment. Tumors were collected and processed as described above.

[2] = tested on: shPTEN (PTEN loss) xenografts; assay: Efficacy study, cell-derived xenograft; type: in vivo, NSG mice; settings: 25-35 days
Method: as §2

[3] = tested on: MCF7 parental cell-derived xenografts; assay: Efficacy study, cell-derived xenograft; type: in vivo, NSG mice; settings: ribociclib 25 mg/kg p.o., BSJ-05-017 50 mg/kg i.p., BSJ-03-096 50 mg/kg p.o., 25-35 days
Method: as §2

MOLT4 cells = assay: Global quantitative mass spectrometry proteomics; type: cell-based, human; settings: 250 nM, 5 h
Method: Molt4 cells were treated with 250 nM of compounds BSJ-05-017 or BSJ-03-096 (singlicate) or DMSO control (biological triplicate) for 5 hours. Cells were harvested by centrifugation and prepared for mass spectrometry as described previously (28). Data were collected as reported (28). LC-MS data were analyzed using Proteome Discoverer 2.4 (Thermo Fisher Scientific), as previously described (28). Reporter ion intensities were normalized and scaled using in-house scripts in the R framework (63). Statistical analysis was carried out using the limma package within the R framework (64).

Pharmacokinetic study = type: in vivo, C57BL/6 male mice
Method: Pharmacokinetic study. C57BL/6 male mice were dosed with BSJ-05-017 solution formulation (i.p., 5/95 DMSO/10% captisol, dose 25 mg/kg) and BSJ-03-096 solution formulation (p.o., 5/95 DMSO/10%, dose 10 mg/kg). Blood samples were collected at 0.08, 0.25, 0.5, 1, 2, 4, 6, 8 and 24 hr. The blood samples were collected from sets of three mice at each time point in microcentrifuge tubes containing K2EDTA as an anticoagulant. Plasma samples were separated by centrifugation and stored below −70° C. until bioanalysis. All samples were processed for analysis by precipitation using acetonitrile and analyzed with a partially validated LC/MS/MS method (LLOQ −1.22 ng/mL for IV and PO, LLOQ −5.02 ng/mL for IP). Pharmacokinetic parameters were calculated using the noncompartmental analysis tool of WinNonlin Enterprise software (Version 6.3).

[4] = tested on: patient-derived xenograft models; assay: Patient-derived xenograft tumor growth; type: in vivo, mice; settings: two patient-derived xenograft models; ribociclib at clinical equivalent dose
MCF-7 parental cells = assay: Cell viability assay (Resazurin); type: cell-based, human; settings: day 7
Method: (§3) Cell viability was measured by Resazurin (R&D Systems, Minneapolis, MN, USA) as described previously (51). Briefly, 1,500 cells were seeded in a 96-well plate and allowed to recover overnight. Cells were treated with drugs at day 0. Resazurin was added to the cells 4 hours prior to the measurements on day 3, day 5 and day 7. Fluorescent intensity was measured using a microplate reader (SpectraMax M5, Molecular Devices, Sunnyvale, CA, USA). IC50 was calculated by GraphPad Prism 7.0 using a sigmoidal regression model.

[5] = tested on: MCF-7 CDK6-high cells (FAT1 loss); assay: Cell viability assay (Resazurin); type: cell-based, human; settings: day 7
Method: as §3

[6] = FAT1 loss / CDK6-high CDK4/6i-resistant MCF7 cells, 24 h treatment
[7] = BSJ-05-017 50 mg/kg i.p., BSJ-03-096 50 mg/kg p.o.
[8] = MCF7 cells with overexpression of CDK6

T1 sequence (P11802 whole entry): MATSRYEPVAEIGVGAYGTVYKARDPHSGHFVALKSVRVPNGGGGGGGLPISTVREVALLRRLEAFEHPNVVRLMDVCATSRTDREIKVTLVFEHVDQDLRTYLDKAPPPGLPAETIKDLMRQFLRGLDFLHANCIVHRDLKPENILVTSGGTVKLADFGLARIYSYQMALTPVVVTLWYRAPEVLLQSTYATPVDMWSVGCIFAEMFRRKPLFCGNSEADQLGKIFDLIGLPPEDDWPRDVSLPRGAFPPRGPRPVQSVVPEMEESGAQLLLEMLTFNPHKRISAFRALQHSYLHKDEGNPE
T1 sequence (P24385 whole entry partner): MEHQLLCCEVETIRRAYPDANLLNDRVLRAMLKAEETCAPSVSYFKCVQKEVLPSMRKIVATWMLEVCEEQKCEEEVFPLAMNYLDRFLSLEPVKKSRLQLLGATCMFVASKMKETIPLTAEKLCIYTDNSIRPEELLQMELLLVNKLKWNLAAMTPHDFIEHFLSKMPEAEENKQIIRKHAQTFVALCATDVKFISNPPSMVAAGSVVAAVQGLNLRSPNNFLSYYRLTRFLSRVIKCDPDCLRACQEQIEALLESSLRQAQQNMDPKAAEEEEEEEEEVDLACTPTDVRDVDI
Sequence of CDK6 (Q00534 whole entry): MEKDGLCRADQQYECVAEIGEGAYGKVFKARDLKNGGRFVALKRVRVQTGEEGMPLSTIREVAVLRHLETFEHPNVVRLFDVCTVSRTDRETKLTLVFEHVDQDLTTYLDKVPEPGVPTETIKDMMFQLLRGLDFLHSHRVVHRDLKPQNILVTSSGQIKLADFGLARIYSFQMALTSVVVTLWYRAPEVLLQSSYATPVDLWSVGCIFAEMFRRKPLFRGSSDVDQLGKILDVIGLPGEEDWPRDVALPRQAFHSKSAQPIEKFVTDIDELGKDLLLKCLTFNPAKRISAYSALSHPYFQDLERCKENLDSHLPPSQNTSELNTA

| SMILES | degradation of CDK4 (CDK4; [6]) | inhibition of phosphorylation of Rb (and downstream E2F1/cyclin A2) (phosphorylation of Rb) | degradation of CDK6 (CDK6; [6]) | further results |
| --- | --- | --- | --- | --- |
| CC(=O)c1c(C)c2cnc(Nc3ccc(N4CCN(CCC5CC(CNc6cccc7c6C(=O)N(C6CCC(=O)NC6=O)C7=O)C5)CC4)cn3)nc2n(C2CCCC2)c1=O (stereo not drawn) [AM-01-125, 4-(((3-(2-(4-(6-((6-acetyl-8-cyclopentyl-5-methyl-7-oxo-7,8-dihydropyrido[2,3-d]pyrimidin-2-yl)amino)pyridin-3-yl)piperazin-1-yl)ethyl)cyclobutyl)methyl)amino)-2-(2,6-dioxopiperidin-3-yl)isoindoline-1,3-dione] | effectively degrade CDK4/CDK6 | inhibit phosphorylation of Rb | effectively degrade CDK4/CDK6 |  |
| CC(=O)c1c(C)c2cnc(Nc3ccc(N4CCN(CCC5CCN(c6ccc7c(c6)C(=O)N(C6CCC(=O)NC6=O)C7=O)CC5)CC4)cn3)nc2n(C2CCCC2)c1=O (stereo not drawn) [AM-01-269, 5-(4-(2-(4-(6-((6-acetyl-8-cyclopentyl-5-methyl-7-oxo-7,8-dihydropyrido[2,3-d]pyrimidin-2-yl)amino)pyridin-3-yl)piperazin-1-yl)ethyl)piperidin-1-yl)-2-(2,6-dioxopiperidin-3-yl)isoindoline-1,3-dione] | effective in degrading CDK4/6 | inhibiting phosphorylation of Rb | effective in degrading CDK4/6 |  |
| CC(=O)c1c(C)c2cnc(Nc3ccc(N4CCN(CCC5CCCCN5c5ccc6c(c5)C(=O)N(C5CCC(=O)NC5=O)C6=O)CC4)cn3)nc2n(C2CCCC2)c1=O (stereo not drawn) [AM-01-275, 6-(2-(2-(4-(6-((6-acetyl-8-cyclopentyl-5-methyl-7-oxo-7,8-dihydropyrido[2,3-d]pyrimidin-2-yl)amino)pyridin-3-yl)piperazin-1-yl)ethyl)piperidin-1-yl)-2-(2,6-dioxopiperidin-3-yl)-3a,4-dihydro-1H-isoindole-1,3(2H)-dione] | effective in degrading CDK4/6 | inhibiting phosphorylation of Rb | effective in degrading CDK4/6 |  |
| CC(=O)c1c(C)c2cnc(Nc3ccc(N4CCN(CC5CCN(c6ccc7c(c6)C(=O)N(C6CCC(=O)NC6=O)C7=O)CC5)CC4)cn3)nc2n(C2CCCC2)c1=O (stereo not drawn) [BSJ-03-096, 5-(4-((4-(6-((6-acetyl-8-cyclopentyl-5-methyl-7-oxo-7,8-dihydropyrido[2,3-d]pyrimidin-2-yl)amino)pyridin-3-yl)piperazin-1-yl)methyl)piperidin-1-yl)-2-(2,6-dioxopiperidin-3-yl)isoindoline-1,3-dione] | most significant degradation of both CDK4 and CDK6; also recorded: effective in degrading both CDK4 and CDK6; also recorded: high potency in degrading CDK4 and CDK6 | efficiently inhibit the phosphorylation of Rb protein; also recorded: effective inhibition of the phosphorylation of Rb | most significant degradation of both CDK4 and CDK6; also recorded: effective in degrading both CDK4 and CDK6; also recorded: high potency in degrading CDK4 and CDK6 | durable tumor inhibition (percent) [1, 7]: −68.9%; durable tumor inhibition (percent) [2, 7]: −54.9%; tumor response [3]: sensitive; selectivity in global proteomics (MOLT4 cells): highly selective for CDK4 and CDK6; degradation of CDK4 (CDK4; [8]): effectively degrade CDK4 and CDK6; degradation of CDK6 (CDK6; [8]): effectively degrade CDK4 and CDK6; Cmax (Pharmacokinetic study; male, C57BL/6, mouse, plasma, po, single dose 10 mg/kg p.o.): 900 nM; concentration at 24 h (Pharmacokinetic study; male, C57BL/6, mouse, plasma, po, single dose 10 mg/kg p.o., read-out: plasma concentration at 24h post dosing): ~100 nM; metabolic stability (Pharmacokinetic study; single dose in mice, i.p. or p.o.): good metabolic stability; inhibition of tumor growth [4]: effective in inhibiting tumor growth |
| CC(=O)c1c(C)c2cnc(Nc3ccc(N4CCN(CCOCCOCCOCCNC(=O)COc5cccc6c5C(=O)N(C5CCC(=O)NC5=O)C6=O)CC4)cn3)nc2n(C2CCCC2)c1=O (stereo not drawn) [BSJ-03-123, N-(2-(2-(2-(2-(4-(6-((6-acetyl-8-cyclopentyl-5-methyl-7-oxo-7,8-dihydropyrido[2,3-d]pyrimidin-2-yl)amino)pyridin-3-yl)piperazin-1-yl)ethoxy)ethoxy)ethoxy)ethyl)-2-((2-(2,6-dioxopiperidin-3-yl)-1,3-dioxoisoindolin-4-yl)oxy)acetamide, reference compound] | not CDK4; also recorded: no effect on CDK4 |  | dose dependent targeting of CDK6; also recorded: effective CDK6 degradation; also recorded: dose-dependent degradation of CDK6 | inhibition of cell growth (MCF-7 parental cells): does not effectively inhibit the growth; inhibition of cell growth [5]: does not effectively inhibit the growth |
| CC(=O)c1c(C)c2cnc(Nc3ccc(N4CCN(CCC5CCN(c6cccc7c6C(=O)N(C6CCC(=O)NC6=O)C7=O)CC5)CC4)cn3)nc2n(C2CCCC2)c1=O (stereo not drawn) [MS-01-303, 4-(4-(2-(4-(6-((6-acetyl-8-cyclopentyl-5-methyl-7-oxo-7,8-dihydropyrido[2,3-d]pyrimidin-2-yl)amino)pyridin-3-yl)piperazin-1-yl)ethyl)piperidin-1-yl)-2-(2,6-dioxopiperidin-3-yl)isoindoline-1,3-dione] | effectively degrade CDK4/CDK6 | inhibit phosphorylation of Rb | effectively degrade CDK4/CDK6 |  |
| CC(=O)c1c(C)c2cnc(Nc3ccc(N4CCN(CCCC5CCN(c6cccc7c6C(=O)N(C6CCC(=O)NC6=O)C7=O)CC5)CC4)cn3)nc2n(C2CCCC2)c1=O (stereo not drawn) [MS-02-24] | effective in degrading CDK4/6 | inhibiting phosphorylation of Rb | effective in degrading CDK4/6 |  |
| CN(C)C(=O)c1cc2cnc(Nc3ccc(N4CCNCC4)cn3)nc2n1C1CCCC1 [ribociclib, reference compound] |  |  |  | tumor response ([1]; ribociclib 25 mg/kg p.o.): tumor outgrowth after initial response; tumor response ([2]; ribociclib 25 mg/kg p.o.): tumor outgrowth after initial response; tumor response [3]: sensitive; inhibition of tumor growth [4]: does not inhibit their growth effectively |
